Measured values: patent publication US9376396B2, “Acylaminocycloalkyl compounds suitable for treating disorders that respond to modulation of dopamine D3 receptor” (AbbVie Deutschland GmbH & Co. KG, priority 2012, dated 2016)
pIC50, pKi: −log10 of the molar value.

Tests used:
[1] = target: T1, human dopamine D3 receptors (Homo sapiens, UniProt P35462); assay: Receptor binding study, dopamine D3 receptor ([125I]-iodosulpride displacement); details: membranes of HEK-293 cells, 0.1 nM [125I]-iodosulpride, 25° C., 60 minutes
T1 construct: expressed in transfected cells; host or cells: HEK-293
Procedure: (§1) The substance to be tested was either dissolved in methanol/Chremophor® (BASF SE) or in dimethyl sulfoxide and then diluted with water to the desired concentration.
(§2) Each assay mixture was run in triplicate. • The incubation buffer contained 50 mM tris, 120 mM NaCl, 5 mM KCl, 2 mM CaCl2, 2 mM MgCl2 and 0.1% bovine serum albumin, 10 μM quinolone and 0.1% ascorbic acid (prepared fresh daily). […] Each assay mixture was run in triplicate. • The incubation buffer contained 50 mM tris, 120 mM NaCl, 5 mM KCl, 2 mM CaCl2, 2 mM MgCl2 and 0.1% bovine serum albumin. The buffer was adjusted to pH 7.4 with HCl. c) Measurement and Analysis: • After having been incubated at 25° C. for 60 minutes, the assay mixtures were filtered through a Whatman GF/B glass fiber filter under vacuum using a cell collecting device. The filters were transferred to scintillation viols using a filter transfer system. After 4 ml of Ultima Gold® (Packard) have been added, the samples were shaken for one hour and the radioactivity was then counted in a Beta-Counter (Packard, Tricarb 2000 or 2200CA).

[2] = target: T2, human dopamine D2L receptors (long isoform) (Homo sapiens, UniProt P14416); assay: Receptor binding study, dopamine D2L receptor ([125I]iodospiperone displacement), selectivity vs D3; details: selectivity ratio, HEK-293 membranes
T2 construct: expressed in transfected cells; host or cells: HEK-293
Procedure: as §1, §2

[3] = Determination of the microsomal half-life / microsomal clearance, rat; format: in vitro ADME; details: rat liver microsomes, 0.5 μM test substance, 0.25 mg microsomal protein/ml, NADPH, 37° C.
Procedure: (§3) The metabolic stability of the compounds of the invention was determined in the following assay.
(§4) The test substances were incubated in a concentration of 0.5 μM as follows:
(§5) 0.5 μM test substance are preincubated together with liver microsomes from different species (from rat, human or other species) (0.25 mg of microsomal protein/ml) in 0.05 M potassium phosphate buffer of pH 7.4 in microtiter plates at 37° C. for 5 min. The reaction is started by adding NADPH (1 mg/mL). After 0, 5, 10, 15, 20 and 30 min, 50 μl aliquots are removed, and the reaction is immediately stopped and cooled with the same volume of acetonitrile. The samples are frozen until analyzed. The remaining concentration of undegraded test substance is determined by MSMS. The half-life (T½) is determined from the gradient of the signal of test substance/unit time plot, it being possible to calculate the half-life of the test substance, assuming first order kinetics, from the decrease in the concentration of the compound with time. The microsomal clearance (mCl) is calculated from mCl=ln 2/T½/(content of microsomal protein in mg/ml)×1000 [ml/min/mg] (modified from references: Di, The Society for Biomoleculur Screening, 2003, 453-462; Obach, DMD, 1999 vol 27. N 11, 1350-1359).

[4] = Determination of the microsomal half-life / microsomal clearance, human; format: in vitro ADME; details: human liver microsomes, 0.5 μM test substance, 0.25 mg microsomal protein/ml, NADPH, 37° C.
Procedure: as §3, §4, §5

hERG cardiac K+ channel = target: T3, hERG cardiac K+ channel (Homo sapiens, UniProt Q12809); assay: Blocking the hERG channel ([3H]dofetilide displacement); format: binding; details: membrane homogenate from HEK 293 cells expressing hERG
T3 construct: expressed in transfected cells; host or cells: HEK-293
Procedure: The binding affinity of test drugs for the hERG cardiac K^+ channel was determined by their ability to displace tritiated dofetilide (a class III antiarrhythmic drug and potent hERG blocker) in membrane homogenates from HEK-293 cells heterogeneously expressing the hERG channel. The assay was performed as previously described G. J. Diaz et al., Journal of Pharmacological and Toxicological Methods, 50 (2004), 187-199). For this, drug dilutions were prepared from 10 mM DMSO stocks and the following were added to a 96-well polystyrene plate (Perkin-Elmer Optiplate): 20 μl of assay binding buffer (for total bounds), or 1 μM astemizole (for non-specific bounds), or test drug, 50 μl of [^3H]dofetilide (20 nM, ˜80 Ci/mmol specific activity), and 130 μl of membrane homogenate from HEK 293 cells stably transfected with hERG K^+ channels (final protein concentration of 30 μg per well). The plates were incubated at ambient temperature for 45 min, aspirated onto GF/B filter plates (Perkin-Elmer), and washed with 2 ml of cold wash buffer. After allowing the plates to dry, 50 μl of scintillant (Perkin-Elmer MicroScint 20) were added to each well and the radioactivity was counted in a Perkin-Elmer Topcount NXT scintillation counter. IC50 determinations were calculated from competition curves using 6 drug concentrations, half-log apart, starting at a high concentration of 100 μM (final assay DMSO concentration=1%) using a four-parameter logistic equation. The results are given as IC50 value.

T3 sequence (Q12809 whole entry): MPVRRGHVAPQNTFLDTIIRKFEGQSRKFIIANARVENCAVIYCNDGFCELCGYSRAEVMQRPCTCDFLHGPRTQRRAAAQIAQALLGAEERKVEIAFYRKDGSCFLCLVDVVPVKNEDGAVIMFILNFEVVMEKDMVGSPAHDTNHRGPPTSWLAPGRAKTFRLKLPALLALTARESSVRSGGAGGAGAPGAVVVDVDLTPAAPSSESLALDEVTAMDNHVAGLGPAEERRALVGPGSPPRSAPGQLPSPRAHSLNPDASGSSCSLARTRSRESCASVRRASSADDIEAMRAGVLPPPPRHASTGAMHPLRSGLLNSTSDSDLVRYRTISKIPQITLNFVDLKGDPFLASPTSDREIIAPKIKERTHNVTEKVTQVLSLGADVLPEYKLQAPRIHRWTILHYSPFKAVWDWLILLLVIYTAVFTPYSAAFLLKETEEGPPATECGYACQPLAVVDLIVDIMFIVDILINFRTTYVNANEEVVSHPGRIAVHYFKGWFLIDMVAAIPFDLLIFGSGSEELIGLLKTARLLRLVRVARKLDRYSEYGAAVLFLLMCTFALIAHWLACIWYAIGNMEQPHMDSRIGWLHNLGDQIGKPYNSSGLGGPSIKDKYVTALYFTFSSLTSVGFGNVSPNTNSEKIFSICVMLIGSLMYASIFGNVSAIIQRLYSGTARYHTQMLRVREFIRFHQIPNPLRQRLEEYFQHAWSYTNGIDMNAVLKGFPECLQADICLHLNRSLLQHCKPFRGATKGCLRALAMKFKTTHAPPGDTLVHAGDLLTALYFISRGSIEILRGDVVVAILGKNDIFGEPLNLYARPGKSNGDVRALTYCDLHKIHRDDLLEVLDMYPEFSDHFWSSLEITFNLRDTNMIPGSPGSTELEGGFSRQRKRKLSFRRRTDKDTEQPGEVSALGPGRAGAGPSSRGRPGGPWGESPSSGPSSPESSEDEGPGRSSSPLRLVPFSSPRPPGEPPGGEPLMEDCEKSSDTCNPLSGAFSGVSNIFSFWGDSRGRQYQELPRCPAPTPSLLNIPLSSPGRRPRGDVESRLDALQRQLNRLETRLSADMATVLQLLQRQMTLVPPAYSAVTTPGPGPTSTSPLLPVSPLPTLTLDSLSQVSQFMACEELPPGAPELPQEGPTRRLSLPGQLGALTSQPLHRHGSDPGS
T2 sequence (P14416 whole entry, canonical isoform): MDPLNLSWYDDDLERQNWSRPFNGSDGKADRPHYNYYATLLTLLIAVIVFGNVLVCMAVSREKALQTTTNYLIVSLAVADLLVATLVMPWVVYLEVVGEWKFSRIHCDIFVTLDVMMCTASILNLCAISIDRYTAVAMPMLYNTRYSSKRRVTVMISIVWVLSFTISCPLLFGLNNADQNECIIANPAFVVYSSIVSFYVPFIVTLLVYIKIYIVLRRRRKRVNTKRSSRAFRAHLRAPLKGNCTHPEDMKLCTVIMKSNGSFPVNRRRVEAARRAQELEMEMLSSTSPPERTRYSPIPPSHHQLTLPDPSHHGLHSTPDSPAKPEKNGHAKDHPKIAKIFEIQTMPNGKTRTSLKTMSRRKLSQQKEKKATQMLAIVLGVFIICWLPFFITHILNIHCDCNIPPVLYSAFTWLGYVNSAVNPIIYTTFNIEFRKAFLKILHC
T1 sequence (P35462 whole entry): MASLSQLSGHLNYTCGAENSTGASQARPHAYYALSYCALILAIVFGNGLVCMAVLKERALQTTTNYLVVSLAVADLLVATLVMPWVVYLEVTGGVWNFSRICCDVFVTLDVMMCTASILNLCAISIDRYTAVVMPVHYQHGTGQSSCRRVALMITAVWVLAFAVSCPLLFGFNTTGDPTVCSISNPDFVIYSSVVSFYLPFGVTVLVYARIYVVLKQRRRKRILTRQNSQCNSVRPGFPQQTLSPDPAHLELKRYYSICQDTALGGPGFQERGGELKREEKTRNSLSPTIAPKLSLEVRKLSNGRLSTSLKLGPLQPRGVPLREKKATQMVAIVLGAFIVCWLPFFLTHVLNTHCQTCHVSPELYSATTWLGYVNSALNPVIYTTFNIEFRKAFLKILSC

- pKi [1]: > 8.00
- D2/D3 (Ki (D2L)/Ki (D3)) [2]: +++ (+++>50)
- Rat mCl [3]: + (+: 20-120 μl min^−1 mg^−1)
- Human mCl [4]: + (+: 20-120 μl min^−1 mg^−1)
Compound: CC(=O)N[C@H]1CC[C@H](CCN2CCN(c3cc(CCO)nc(C(C)(C)C)n3)CC2)CC1 [Compound 13, trans-N-[4-(2-{4-[2-tert-Butyl-6-(2-hydroxy-ethyl)-pyrimidin-4-yl]-piperazin-1-yl}-ethyl)-cyclohexyl]-acetamide]
- pIC50 (hERG cardiac K+ channel): < 5.00
